Measured values: PMC6972920, “Structure-based development of caged dopamine D2/D3 receptor antagonists” (Scientific Reports, 2020)
“Also recorded” adds a separate entry of the source.

Columns and labels:
[1] = target: human dopamine receptor subtype D2L (Homo sapiens, UniProt P14416); test: Radioligand displacement, [3H]spiperone, CHO cell membranes; assay type: binding; details: [3H]spiperone; mean ± SEM of 4-9 experiments; compounds 1, 2, 3: ± SD of two experiments; read-out: Ki value D2L
[2] = target: human dopamine receptor subtype D2S (Homo sapiens, UniProt P14416); test: as above; assay type: binding; details: [3H]spiperone; mean ± SEM of 4-9 experiments; compounds 1, 2, 3: ± SD of two experiments; read-out: Ki value D2S
Chain of human dopamine receptor subtype D2S (P14416 1-414 isoform P14416-2): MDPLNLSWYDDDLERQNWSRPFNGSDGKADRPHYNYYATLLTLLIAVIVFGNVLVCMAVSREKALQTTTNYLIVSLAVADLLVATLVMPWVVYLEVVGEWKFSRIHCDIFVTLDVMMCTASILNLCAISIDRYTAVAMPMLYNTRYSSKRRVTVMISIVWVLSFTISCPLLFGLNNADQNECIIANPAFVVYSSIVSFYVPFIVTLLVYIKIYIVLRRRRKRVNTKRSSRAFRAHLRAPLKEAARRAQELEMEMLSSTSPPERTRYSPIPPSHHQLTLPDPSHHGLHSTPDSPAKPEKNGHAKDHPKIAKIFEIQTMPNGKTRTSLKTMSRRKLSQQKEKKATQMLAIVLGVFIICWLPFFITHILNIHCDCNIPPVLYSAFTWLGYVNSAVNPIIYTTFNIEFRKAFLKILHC

[3] = target: human dopamine receptor subtype D3 (Homo sapiens, UniProt P35462); test: as above; assay type: binding; details: mean ± SEM of 4-9 experiments, compounds 1, 2, 3: ± SD of two experiments
Chain of human dopamine receptor subtype D3 (P35462 whole entry): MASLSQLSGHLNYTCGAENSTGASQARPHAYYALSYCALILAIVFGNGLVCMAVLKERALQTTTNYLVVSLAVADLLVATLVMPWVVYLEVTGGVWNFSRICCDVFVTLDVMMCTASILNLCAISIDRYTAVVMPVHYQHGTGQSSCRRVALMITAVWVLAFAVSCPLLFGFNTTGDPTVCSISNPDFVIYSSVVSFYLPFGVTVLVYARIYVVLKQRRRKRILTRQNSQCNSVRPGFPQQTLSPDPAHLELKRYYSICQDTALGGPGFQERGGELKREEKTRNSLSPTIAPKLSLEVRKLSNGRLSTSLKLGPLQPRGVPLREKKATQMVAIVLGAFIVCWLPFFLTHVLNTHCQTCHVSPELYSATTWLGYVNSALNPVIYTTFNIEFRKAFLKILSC

[4] = target: T1, dopamine D2S receptor co-expressed with hybrid Gαqi in HEK293T cells (Homo sapiens, UniProt P14416); test: IP accumulation assay (IP-One HTRF), agonist / inverse agonist effect; assay type: cell-based; details: for functional properties in IP accumulation assay (in words): D2S receptors; for Emax: HEK-293T, relative to full effect of quinpirole (100%) and buffer (0%); for EC50: IP accumulation, ± SEM, 3-8 experiments, negative Emax = inverse agonist effect
T1 construct: expressed in transfected cells; host or cells: HEK-293T cells, transient co-transfection
T1 sequence (P14416 1-414 isoform P14416-2): as the sequence (P14416 1-414 isoform P14416-2) above

[5] = target: T1, dopamine D2S receptor co-expressed with hybrid Gαqi in HEK293T cells; test: IP accumulation assay (IP-One HTRF), inhibition of 10 nM quinpirole; assay type: cell-based; details: for Emax: HEK-293T, in presence of 10 nM quinpirole, relative to quinpirole (100%) and buffer (0%), read-out: inhibitory effect Emax; for IC50: blocking of the agonist effect of 10 nM quinpirole, ± SEM, 4-6 experiments, read-out: inhibitory effect IC50
[6] = target: T2, D2S receptor (HEK293T cells co-transfected with D2S and Gαqi) (Homo sapiens, UniProt P14416); test: Illumination experiment: test compound solution irradiated at 365 nm before addition to cells, quinpirole stimulated IP accumulation; assay type: cell-based; details: for irradiation time after which no quinpirole activity could be observed / agonist effect of quinpirole remaining after 2 seconds of irradiation: 50 nM caged compound, 365 nm; for irradiation time for complete release (uncaging) of dechloroeticlopride: 50 nM, irradiation at 365 nm, solution irradiated before addition to cells
T2 construct: expressed in transfected cells; host or cells: HEK-293T cells, transient co-transfection
T2 sequence (P14416 1-414 isoform P14416-2): as above
From the text: (§1) […]. Mean curves ± SEM of 4–9 individual curves each done in triplicates. […]. Mean curves from 3–4 experiments each done in duplicate. […]. While 4 (MG307) (green bars) is completely released after 10 sec, the uncaging of 5 (red bars) needs 20 sec. […]. Mean bars ± SEM derived from 3–11 individual experiments each done in quintuplicates. Irradiation with a solution of test compound before addition to the cellular test system. […]. Means ± SEM from 6 experiments in quintuplicates.
(§2) […]. Actually, we observed an onset of a strong inverse agonist effect on quinpirole-induced IP accumulation after irradiation of the nitrobenzyl-caged compound 4 (MG307). […] […]. […] To complement uncaging of the test compounds by irradiation of the test compounds before addition to receptor by a biologically more significant experiment, we investigated whether uncaging can also be accomplished directly in the cellular system. […] In fact, quinpirole-promoted IP accumulation was substantially attenuated after irradiation for 10 or 20 sec. […] […]. […] […].
HEK293T cells were transiently co-transfected with D2S and Gαqi. Solutions of the test compounds were irradiated at λ = 365 nm using the same LED as for the photochemistry experiments (see above) for 2, 5, 10 or 20 sec and the test compound was added to the cell system immediately after illumination. […]. Accumulation of IP was determined as described above. […]. Basal activity (buffer) was set as 0%. As a control, quinpirole was irradiated for 20 sec without observing any difference to the effect of the untreated analog. […]. All irradiation experiments were carried out in the dark or under dim light.

[7] = target: T2, D2S receptor (HEK293T cells co-transfected with D2S and Gαqi); test: Photoactivation by direct irradiation of the cellular test system, quinpirole mediated IP accumulation; assay type: cell-based; details: buffer and compound irradiated at 365 nm for 10 or 20 sec
From the text: as §1, §2
HEK293T cells were transiently co-transfected with D2S and Gαqi. Solutions of the test compounds were irradiated at λ = 365 nm using the same LED as for the photochemistry experiments (see above) for 2, 5, 10 or 20 sec and the test compound was added to the cell system immediately after illumination. […]. Accumulation of IP was determined as described above. […]. […]

[8] = Compound stability and photolysis in aqueous buffer monitored by HPLC; assay type: physicochemical; details: for behaviour upon illumination with λp = 365 nm (in words): aqueous buffer, LED 365 nm, HPLC; for stability in the absence of light (in words): dark, storage and solution, HPLC/LCMS; for remaining fraction of the initial concentration: incubation in aqueous buffer at ambient light for 1 h
Description: All measurements were performed in aqueous buffer solution. Compound stability and photolysis was monitored by HPLC. […] Excitation of NB- and DMNB-type cages to trigger photolysis is usually performed with light of 300–400 nm. This absorption profile may limit the wavelength range for cage photolysis, as simultaneous excitation of the core pharmacophore may trigger photolytic degradation of the desired product. We performed photolysis experiments using a near UV light-emitting diode (LED) light source with a peak wavelength of λp = 365 nm and a spectrum half width of Δλ = 9 nm.
No unspecific degradation of the pharmacophore was observed, resulting in constant concentration of the desired product. […] The exposure to ambient light for longer time led to partial photolytic degradation. After incubation in aqueous buffer at ambient light for 1 h, we detected remaining 51% and 62% of the initial concentrations of 4 (MG307) and 5, respectively.
For compound characterization, UV/Vis absorption spectra of samples with c = 0.1 mM in methanol were measured on an Analytik Jena Specord 200 Plus spectrometer (λ = 210–400 nm). Irradiation experiments to trigger photolysis were performed in open HPLC glass vials using a LED (λ = 365 nm, 4.5 V, 0.7 A) to irradiate the samples from top. An aqueous buffer solution served as solvent (50 mM Tris, 1 mM EDTA, 50 mM MgCl2, 100 µg/ml bacitracin, 5 µg/ml soybean trypsin inhibitor), with initial sample concentrations of […] and sample volumes of 100 µl. Photolysis was monitored by HPLC as specified before (eluent system 1). […] Unless specified differently, all experiments were performed in triplicate.

[9] = Quantum yield determination of uncaging (365 nm LED); assay type: physicochemical; details: for quantum yield φ for photolytic liberation of dechloroeticlopride: 365 nm; for quantum yield ϕ: 0.1 mM in aqueous buffer; for quantum yield ϕ / yield of liberated dechloroeticlopride: 365 nm LED
Description: Quantum yield determination. Quantum yields were determined in the following setup: translation stages (horizontal and vertical): Thorlabs DT 25/M or DT S25/M; photographic lens with f = 50 mm; magnetic stirrer: Faulhaber motor (1524B024S R) with 14:1 gear (15A); PS19Q power sensor from Coherent; PowerMax software; adjustable power supply “Basetech BT-153 0-15 V/DC 0-3 A 45 W” [2].
Measurements were performed in a covered apparatus to minimize the influence of ambient light. A 10 mm Hellma® quartz fluorescence cuvette with solvent (aqueous buffer solution, 2 ml) and a stirring bar was placed in the beam of a 365 nm LED and the transmitted power (Pref = 4.40 mW) was measured by a calibrated photodiode horizontal to the cuvette. The content of the cuvette was changed to a 0.1 mM solution of the respective caged compound in aqueous buffer (2 ml) with a stirring bar. The transmitted power was measured analogously to the blank solution. The sample was further irradiated and the transmitted power as well as the respective yield of liberated benzamide dechloroeticlopride was recorded after different times. The quantum yield was then calculated with the following […]
ϕ = N௉ = c௉ ∙ V ∙N஺ ∙ h ∙c
ϕ = quantum yield h = Planck constant
N௉ = number of product molecules formed c = speed of light
N௉௛.௔௕௦. = number of absorbed photons P௔௕௦. = radiant power absorbed
c௉ = product concentration ∆t = irradiation time
V = sample volume λ = irradiation wavelength […]
entry compound irradiation time Pabs. yield ϕ

Chain of human dopamine receptor subtype D2L (P14416 whole entry): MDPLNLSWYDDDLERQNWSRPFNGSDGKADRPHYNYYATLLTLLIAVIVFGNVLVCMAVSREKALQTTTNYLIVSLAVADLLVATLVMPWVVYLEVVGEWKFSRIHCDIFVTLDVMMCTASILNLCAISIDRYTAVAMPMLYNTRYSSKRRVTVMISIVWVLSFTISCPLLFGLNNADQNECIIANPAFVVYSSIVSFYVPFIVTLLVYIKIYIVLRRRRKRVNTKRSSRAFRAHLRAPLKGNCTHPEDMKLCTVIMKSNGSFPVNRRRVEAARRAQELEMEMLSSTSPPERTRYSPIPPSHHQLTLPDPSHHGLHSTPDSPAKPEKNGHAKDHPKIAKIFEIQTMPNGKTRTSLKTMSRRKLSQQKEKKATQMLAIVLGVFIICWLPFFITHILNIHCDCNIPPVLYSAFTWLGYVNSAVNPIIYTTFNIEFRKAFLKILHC

Ki [1]	Ki [2]	Ki [3]	Emax [4]	EC50 [4]	Emax [5]	IC50 [5]	irradiation time after which no quinpirole activity could be observed ([6]; 10 nM quinpirole)	agonist effect of quinpirole remaining after 2 seconds of irradiation ([6]; 10 nM quinpirole)	irradiation time for complete release (uncaging) of dechloroeticlopride [6]	remaining D2S promoted signalling (IP accumulation) after irradiation in the cellular system [7]	remaining fraction of the initial concentration [8]	quantum yield φ for photolytic liberation of dechloroeticlopride [9]	quantum yield ϕ ([9]; irradiation time 10 min)	yield of liberated dechloroeticlopride ([9]; irradiation time 10 min)	quantum yield ϕ ([9]; irradiation time 30 min)	yield of liberated dechloroeticlopride ([9]; irradiation time 30 min)	Structure (SMILES)	functional properties in IP accumulation assay (in words) [4]	behaviour upon illumination with λp = 365 nm (in words) [8]	stability in the absence of light (in words) [8]	also measured
0.21 ± 0.018 µM	0.22 ± 0.066 µM	0.2 ± 0.062 µM	-21 ± 3.3%	0.22 ± 0.065 µM	-29 ± 5.6%	0.85 ± 0.21 µM	10 s	less than 30%	10 s	< 5%	51%	0.5%	2.9%	11%	1.2%	16%	CCc1ccc(OC)c(C(=O)NC[C@@H]2CCCN2CC)c1OCc1ccccc1[N+](=O)[O-] [compound 4, (S)-3-Ethyl-N-[(1-ethylpyrrolidin-2-yl)methyl]-6-methoxy-2-[(2-nitrobenzyl)oxy]benzamide]	inverse agonist properties were observed as well, but potency was low	fast conversion to dechloroeticlopride within a few seconds	stable under storage conditions and in solution for at least two days	behaviour upon illumination with λp = 365 nm (in words) ([8]; listed as 4 (MG307)): clean photolysis
0.35 ± 0.047 µM	0.16 ± 0.035 µM	0.14 ± 0.033 µM	-21 ± 5.5%	0.28 ± 0.12 µM	-28 ± 4.6%	0.99 ± 0.23 µM	20 s	less than 30%	20 s	about 35%	62%	2.1%	0.7%	17%	0.3%	22%	CCc1ccc(OC)c(C(=O)NC[C@@H]2CCCN2CC)c1OCc1cc(OC)c(OC)cc1[N+](=O)[O-] [compound 5]	inverse agonist properties were observed as well, but potency was low	fast conversion to dechloroeticlopride within a few seconds; also recorded: clean photolysis	stable under storage conditions and in solution for at least two days	–
0.0024 ± 0.00044 µM	0.0012 ± 0.00021 µM	–	-17 ± 2.5%	0.0052 ± 0.0008 µM	-20 ± 2.1%	0.0096 µM	–	–	–	–	–	–	–	–	–	–	CCc1ccc(OC)c(C(=O)NC[C@@H]2CCCN2CC)c1O [dechloroeticlopride, (S)-3-Ethyl-N-[(1-ethylpyrrolidin-2-yl)methyl]-2-hydroxy-6-methoxybenzamide, reference compound]	specific antagonist / inverse agonist	more photostable; also recorded: no significant decomposition	–	effect of irradiation at 365 nm for 20 sec on the compound's effect on IP accumulation (in words) ([6]; controls, 10 nM quinpirole): does not affect
